Measurements as given in patent publication US20230416238A1, “N-[(1,3-BENZOXAZOL-2-YL)-HETEROCYCLE]AMIDE DERIVATIVES FOR THE TREATMENT AND PROPHYLAXIS OF HEPATITIS B VIRUS INFECTION” (Hoffmann-La Roche Inc., priority 2020, published 2023).

How the values were obtained:
Assay type in all cases: cell-based
HBsAg = test: PHH HBV natural infection assay, HBsAg (alphalisa); settings: Hepatitis B virus, Hepatocyte, read-out: HBsAg IC50
How it was run: (§1)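 Primary human hepatocytes infected with HBV at 200 GE/cell plus 4% PEG8000 for 24 h, then sandwich-cultured 72 h in medium with 1% DMSO. Compound applied twice at 72-h intervals; supernatant HBsAg and HBeAg quantified by AlphaLISA.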

HBeAg = test: PHH HBV natural infection assay, HBeAg (alphalisa); settings: Hepatitis B virus, Hepatocyte, read-out: HBeAg IC50
How it was run: as §1

[1] = Cytotoxicity in PHH natural infection assay (Cell Counting Kit-8); settings: HBV-infected primary human hepatocytes, CCK8
How it was run: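 HBV-infected primary human hepatocytes (200 GE/cell, 4% PEG8000, 24 h), then sandwich-cultured 72 h. Cells dosed at varying concentrations for two 72-hour cycles, with medium refreshed. Cytotoxicity read by CCK-8 at end of treatment.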

Row | Structure (SMILES) | IC50 (HBsAg) | IC50 (HBeAg) | CC50 at 144 h [1]
1 | NC(=O)c1cc(C(=O)NCC2CCN(c3nc4cc(Cl)ccc4o3)CC2)ccn1 [Example 6, N4-[[1-(5-chloro-1,3-benzoxazol-2-yl)-4-piperidyl]methyl]pyridine-2,4-dicarboxamide] | 4.36 µM | 4.43 µM | > 10 µM
2 | C[S+]([O-])c1ccc(C(=O)NC2CCC3(CC2)CCN(c2nc4cc(Cl)ccc4o2)CC3)o1 (stereo not drawn) [Example 116, N-[3-(5-chloro-1,3-benzoxazol-2-yl)-3-azaspiro[5.5]undecan-9-yl]-5-methylsulfinyl-furan-2-carboxamide] | 2.86 µM | 2.34 µM | 68.5 µM
3 | COCCOc1cc(C(=O)NC2CC3(C2)CN(c2nc4cc(Cl)ccc4o2)C3)ccn1 [Example 39, N-[2-(5-chloro-1,3-benzoxazol-2-yl)-2-azaspiro[3.3]heptan-6-yl]-2-(2-methoxyethoxy)pyridine-4-carboxamide] | 6.47 µM | 4.37 µM | > 100 µM
4 | C[S+]([O-])c1ccc(C(=O)NC2CC3(C2)CN(c2nc4cc(Cl)ccc4o2)C3)o1 (stereo not drawn) [Example 64, N-[2-(5-chloro-1,3-benzoxazol-2-yl)-2-azaspiro[3.3]heptan-6-yl]-5-methylsulfinyl-furan-2-carboxamide] | 2.52 µM | 1.54 µM | > 100 µM
5 | O=C(NC1CCC2(CC1)CCN(c1nc3cc(Cl)ccc3o1)CC2)C1CCC(F)(F)CC1 [Example 102, N-[3-(5-chloro-1,3-benzoxazol-2-yl)-3-azaspiro[5.5]undecan-9-yl]-4,4-difluoro-cyclohexanecarboxamide] | 3.6 µM | 3.77 µM | > 100 µM
6 | COc1cc(C(=O)NC2CC3(C2)CN(c2nc4ccc(Cl)cc4o2)C3)ccn1 [Example 38, N-[2-(6-chloro-1,3-benzoxazol-2-yl)-2-azaspiro[3.3]heptan-6-yl]-2-methoxy-pyridine-4-carboxamide] | 6.89 µM | 5.73 µM | > 10 µM
7 | O=C(NC1CCC2(CC1)CCN(c1nc3cc(Cl)ccc3o1)CC2)C1CS(=O)(=O)C1 [Example 88, N-[3-(5-chloro-1,3-benzoxazol-2-yl)-3-azaspiro[5.5]undecan-9-yl]-1,1-dioxo-thietane-3-carboxamide] | 1.52 µM | 1.25 µM | 28.9 µM
8 | O=C(NC1CC2(C1)CN(c1nc3cc(Cl)ccc3o1)C2)C1CS(=O)(=O)C1 [Example 34, N-[2-(5-chloro-1,3-benzoxazol-2-yl)-2-azaspiro[3.3]heptan-6-yl]-1,1-dioxo-thietane-3-carboxamide] | 5.5 µM | 4.48 µM | > 100 µM
9 | O=C(NC1CC2(C1)CN(c1nc3cc(Cl)ccc3o1)C2)c1ccnc(C(F)(F)F)c1 [Example 55, N-[2-(5-chloro-1,3-benzoxazol-2-yl)-2-azaspiro[3.3]heptan-6-yl]-2-(trifluoromethyl)pyridine-4-carboxamide] | 1.23 µM | 0.966 µM | 71.1 µM
10 | O=C(NC1CC2(CCN(c3nc4cc(Cl)ccc4o3)C2)C1)c1ccc(C(F)(F)F)o1 (stereo not drawn) [Example 72, N-[6-(5-chloro-1,3-benzoxazol-2-yl)-6-azaspiro[3.4]octan-2-yl]-5-(trifluoromethyl)furan-2-carboxamide] | 7.9 µM | 4.36 µM | 81.4 µM
11 | NS(=O)(=O)CCC(=O)NC1CCC2(CC1)CCN(c1nc3cc(Cl)ccc3o1)CC2 [Example 82, N-[3-(5-chloro-1,3-benzoxazol-2-yl)-3-azaspiro[5.5]undecan-9-yl]-3-sulfamoyl-propanamide] | 3.09 µM | 2.3 µM | 76.3 µM
12 | NC(=O)c1ccc(C(=O)NCC2CCN(c3nc4cc(Cl)ccc4o3)CC2)o1 [Example 1, N2-[[1-(5-Chloro-1,3-benzoxazol-2-yl)-4-piperidyl]methyl]furan-2,5-dicarboxamide] | 9.4 µM | 7.13 µM | > 10 µM
